According to publication PMC12920416, “Preclinical development of [^18F]TAAR1-2203 as a PET radioligand for imaging TAAR1 expression and receptor occupancy” (European Journal of Nuclear Medicine and Molecular Imaging, 2025):
≈ marks a conversion by molar mass, not a printed value.

Columns and labels:
[1] = Plasma stability of non-radioactive reference, mouse plasma; assay type: in vitro ADME; settings: 37 °C, up to 5 h
human P-glycoprotein = human P-glycoprotein (Homo sapiens, UniProt P08183); assay: P-glycoprotein efflux assay, human P-gp; assay type: in vitro ADME
mouse TAAR1 = mouse TAAR1 (Mus musculus, UniProt Q923Y8); assay: Competition binding assay, mouse TAAR1
[2] = Plasma stability of non-radioactive reference, non-human primate plasma; assay type: in vitro ADME; settings: 37 °C, up to 5 h
mouse P-glycoprotein = mouse P-glycoprotein (Mus musculus, UniProt P21447); assay: P-glycoprotein efflux assay, mouse P-gp; assay type: in vitro ADME
PAMPA permeability = assay type: in vitro ADME
Excerpt: (§1) Supplement 259_2025_7564_MOESM1_ESM.docx, table 1: Supplemental Table 1. Physicochemical properties of TAAR1-2203. | column: 194.2

[3] = Clearance in human liver microsomes; assay type: in vitro ADME
Excerpt: (§2) Supplement 259_2025_7564_MOESM1_ESM.docx, table 2: Supplemental Table 2. ADME profile of TAAR1 ligand TAAR1-2203. | column: 14 / 10

rat TAAR1 = rat TAAR1 (Rattus norvegicus, UniProt Q923Y9); assay: Competition binding assay, rat TAAR1
[4] = Clearance in human hepatocytes; assay type: in vitro ADME
Excerpt: as §2

Aqueous solubility = assay type: physicochemical; settings: pH 6.5 in 0.05 M phosphate buffer
Excerpt: (§3) ^a Aqueous solubility at pH 6.5 in 0.05 M phosphate buffer; ^b pH 7.4

[5] = Plasma protein binding of TAAR1-2203, rat plasma; assay type: in vitro ADME
TAAR1 [6] = assay: Competition binding assay, cynomolgus monkey TAAR1
[7] = Chemical stability in aqueous buffer; assay type: physicochemical; settings: pH 1, 4, 6.5 and 8 for 2 h at 37 °C
Excerpt: as §1

[8] = Clearance in rat hepatocytes; assay type: in vitro ADME
Excerpt: as §2

[9] = Plasma stability of non-radioactive reference, rat plasma; assay type: in vitro ADME; settings: 37 °C, up to 5 h
[10] = Plasma stability of non-radioactive reference, human plasma; assay type: in vitro ADME; settings: 37 °C, up to 5 h
[11] = 4-week repeat dose toxicity study, rats; assay type: in vivo; settings: 4-week repeat dose toxicity study
[12] = Plasma protein binding of TAAR1-2203, human plasma; assay type: in vitro ADME
[13] = 4-week repeat dose toxicity study, dogs; assay type: in vivo; settings: 4-week repeat dose toxicity study
TAAR1 [14] = biological target: T1, TAAR1 (Homo sapiens, UniProt Q96RJ0); assay: Competition binding assay, human TAAR1
T1 sequence (Q96RJ0 1-339): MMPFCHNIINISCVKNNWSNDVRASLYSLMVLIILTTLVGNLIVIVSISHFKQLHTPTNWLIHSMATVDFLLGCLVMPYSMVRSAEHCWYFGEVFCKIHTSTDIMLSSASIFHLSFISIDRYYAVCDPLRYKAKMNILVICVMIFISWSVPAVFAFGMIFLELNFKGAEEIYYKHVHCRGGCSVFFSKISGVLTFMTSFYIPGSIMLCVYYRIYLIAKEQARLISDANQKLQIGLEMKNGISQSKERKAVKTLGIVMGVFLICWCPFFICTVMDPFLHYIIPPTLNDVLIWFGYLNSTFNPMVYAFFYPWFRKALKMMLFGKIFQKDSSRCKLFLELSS

[15] = Clearance in rat liver microsomes; assay type: in vitro ADME
Excerpt: as §2

[16] = logD (physicochemical profiling); settings: pH 7.4
Excerpt: as §3

Sequence of human P-glycoprotein (P08183 whole entry): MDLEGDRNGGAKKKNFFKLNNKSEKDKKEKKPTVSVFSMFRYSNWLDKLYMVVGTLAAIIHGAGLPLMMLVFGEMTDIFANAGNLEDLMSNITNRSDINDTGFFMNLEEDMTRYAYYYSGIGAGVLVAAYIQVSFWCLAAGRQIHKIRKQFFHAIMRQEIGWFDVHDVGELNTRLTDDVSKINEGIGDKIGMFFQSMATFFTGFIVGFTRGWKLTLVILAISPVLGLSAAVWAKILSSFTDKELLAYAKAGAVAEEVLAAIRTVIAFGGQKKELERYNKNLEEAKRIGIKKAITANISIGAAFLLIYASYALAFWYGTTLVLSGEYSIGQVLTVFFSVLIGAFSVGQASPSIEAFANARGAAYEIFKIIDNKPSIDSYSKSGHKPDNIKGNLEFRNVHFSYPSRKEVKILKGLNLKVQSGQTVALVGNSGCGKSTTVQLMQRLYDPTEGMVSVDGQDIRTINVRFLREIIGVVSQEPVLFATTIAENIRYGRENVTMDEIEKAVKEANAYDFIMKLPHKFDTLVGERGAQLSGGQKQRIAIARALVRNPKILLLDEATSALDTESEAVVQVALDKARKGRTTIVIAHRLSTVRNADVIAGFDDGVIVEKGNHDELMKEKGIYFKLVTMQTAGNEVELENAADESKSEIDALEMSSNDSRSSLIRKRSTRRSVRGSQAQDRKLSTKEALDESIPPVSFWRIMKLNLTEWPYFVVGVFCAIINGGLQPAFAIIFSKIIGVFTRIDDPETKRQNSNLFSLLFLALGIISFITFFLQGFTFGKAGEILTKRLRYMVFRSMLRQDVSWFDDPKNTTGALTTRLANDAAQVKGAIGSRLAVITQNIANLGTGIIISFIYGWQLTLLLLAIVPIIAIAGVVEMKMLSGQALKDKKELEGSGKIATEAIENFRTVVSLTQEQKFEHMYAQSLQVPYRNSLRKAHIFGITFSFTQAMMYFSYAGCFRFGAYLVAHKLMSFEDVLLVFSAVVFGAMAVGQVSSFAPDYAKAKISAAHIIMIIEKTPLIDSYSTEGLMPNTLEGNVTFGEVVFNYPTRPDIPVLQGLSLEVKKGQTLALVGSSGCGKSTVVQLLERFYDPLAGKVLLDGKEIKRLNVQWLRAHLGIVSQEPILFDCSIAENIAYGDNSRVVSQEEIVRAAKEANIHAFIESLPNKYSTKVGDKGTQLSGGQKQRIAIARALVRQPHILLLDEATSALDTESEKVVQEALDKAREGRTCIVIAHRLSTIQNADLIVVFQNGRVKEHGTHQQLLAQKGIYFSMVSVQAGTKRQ
Sequence of mouse P-glycoprotein (P21447 whole entry): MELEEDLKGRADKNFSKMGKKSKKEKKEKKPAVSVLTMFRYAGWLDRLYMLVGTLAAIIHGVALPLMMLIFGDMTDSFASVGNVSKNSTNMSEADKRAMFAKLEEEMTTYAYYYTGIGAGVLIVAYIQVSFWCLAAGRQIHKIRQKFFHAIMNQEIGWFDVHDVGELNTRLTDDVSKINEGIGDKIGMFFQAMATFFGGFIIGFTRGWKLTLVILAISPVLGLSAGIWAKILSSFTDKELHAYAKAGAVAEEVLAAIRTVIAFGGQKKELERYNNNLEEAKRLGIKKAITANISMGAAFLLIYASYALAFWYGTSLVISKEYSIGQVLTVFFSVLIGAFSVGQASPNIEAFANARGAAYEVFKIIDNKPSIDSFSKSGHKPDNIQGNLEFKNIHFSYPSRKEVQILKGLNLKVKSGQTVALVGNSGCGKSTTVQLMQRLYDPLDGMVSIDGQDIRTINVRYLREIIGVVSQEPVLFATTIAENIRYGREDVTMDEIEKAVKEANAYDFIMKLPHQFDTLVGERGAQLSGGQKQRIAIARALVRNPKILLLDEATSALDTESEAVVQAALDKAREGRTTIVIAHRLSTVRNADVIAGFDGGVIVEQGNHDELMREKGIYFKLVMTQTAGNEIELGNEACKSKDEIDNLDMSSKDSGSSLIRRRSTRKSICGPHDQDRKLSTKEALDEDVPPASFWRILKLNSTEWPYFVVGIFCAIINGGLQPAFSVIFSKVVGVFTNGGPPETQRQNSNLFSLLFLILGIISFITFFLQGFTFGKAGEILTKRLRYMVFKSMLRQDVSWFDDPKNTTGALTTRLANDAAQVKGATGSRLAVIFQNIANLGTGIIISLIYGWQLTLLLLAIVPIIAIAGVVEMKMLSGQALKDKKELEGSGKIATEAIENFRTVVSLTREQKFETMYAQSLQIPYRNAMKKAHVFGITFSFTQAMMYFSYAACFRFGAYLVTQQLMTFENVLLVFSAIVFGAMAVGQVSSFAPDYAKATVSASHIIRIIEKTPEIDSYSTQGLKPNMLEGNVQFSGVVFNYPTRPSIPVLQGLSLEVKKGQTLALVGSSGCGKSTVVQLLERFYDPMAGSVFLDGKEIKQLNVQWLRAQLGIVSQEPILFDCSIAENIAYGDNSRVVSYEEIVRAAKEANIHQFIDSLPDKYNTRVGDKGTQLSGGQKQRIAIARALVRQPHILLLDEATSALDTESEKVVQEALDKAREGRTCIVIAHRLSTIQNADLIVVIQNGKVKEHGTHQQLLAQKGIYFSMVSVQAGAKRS
Sequence of mouse TAAR1 (Q923Y8 whole entry): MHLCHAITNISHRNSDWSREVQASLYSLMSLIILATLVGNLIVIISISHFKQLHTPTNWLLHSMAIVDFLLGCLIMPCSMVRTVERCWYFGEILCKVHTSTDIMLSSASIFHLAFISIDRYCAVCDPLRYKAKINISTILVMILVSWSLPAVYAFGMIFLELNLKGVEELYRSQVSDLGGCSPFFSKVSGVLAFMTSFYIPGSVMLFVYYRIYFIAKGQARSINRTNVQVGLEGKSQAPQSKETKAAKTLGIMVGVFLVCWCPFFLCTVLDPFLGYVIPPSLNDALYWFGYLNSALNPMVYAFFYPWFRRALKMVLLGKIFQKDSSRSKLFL
Sequence of rat TAAR1 (Q923Y9 whole entry): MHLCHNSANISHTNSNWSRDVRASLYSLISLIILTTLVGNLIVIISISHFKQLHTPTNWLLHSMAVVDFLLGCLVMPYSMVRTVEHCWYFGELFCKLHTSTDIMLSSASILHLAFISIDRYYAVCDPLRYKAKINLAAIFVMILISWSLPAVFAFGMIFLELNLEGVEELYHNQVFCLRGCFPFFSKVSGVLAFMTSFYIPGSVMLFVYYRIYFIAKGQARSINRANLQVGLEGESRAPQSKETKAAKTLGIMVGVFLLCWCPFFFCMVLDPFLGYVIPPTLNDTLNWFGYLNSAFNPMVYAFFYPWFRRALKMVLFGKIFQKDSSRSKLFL

Cc1c(F)cccc1[C@H]1COC(N)=N1 [TAAR1-2203]
Stability in mouse plasma [1]: No degradation was observed | Papp, AB inhibitor, human P-glycoprotein assay (human P-glycoprotein): 41.2 ×10⁻⁶ cm/s | human P-glycoprotein efflux ratio (human P-glycoprotein): 1.2 | Ki (mouse TAAR1): 0.9 nM | Stability in non-human primate plasma [2]: No degradation was observed | Papp, AB inhibitor, mouse P-glycoprotein assay (mouse P-glycoprotein): 31.6 ×10⁻⁶ cm/s | mouse P-glycoprotein efflux ratio (mouse P-glycoprotein): 1.0 | PAMPA Peff (PAMPA permeability): 14.5 cm/s*10E^-6 | human clearance in microsomes [3]: 14 µL/min/mg protein | Ki (rat TAAR1): 7.4 nM | human clearance in hepatocytes [4]: 10 µL/min/10E6 cells | Solubility (Aqueous solubility): 210 µg/mL (≈ 1080 µM) | Free fraction in rodent plasma ([5]; non-radioactive TAAR1-2203): approximately 60% | Free fraction in rat plasma ([5]; rat): 61% | Ki (TAAR1 [6]): 22.5 nM | Chemical stability in aqueous buffer [7]: Stable at pH 1, 4, 6.5 and 8 for 2 h at 37 °C | rat clearance in hepatocytes [8]: 1.7 µL/min/10E6 cells | Stability in rat plasma [9]: No degradation was observed | Stability in human plasma [10]: No degradation was observed | Doses well tolerated without adverse events, rats [11]: ≤ 10 mg/kg | human plasma free fraction ([12]; human): 62% | Free fraction in human plasma ([12]; non-radioactive TAAR1-2203): approximately 60% | Doses well tolerated without adverse events, dogs [13]: up to 3 mg/kg | Ki (TAAR1 [14]): 5.7 nM | rat clearance in microsomes [15]: 10 µL/min/mg protein | logD [16]: 1.12
